Format in all cases: in vivo, human
In series [1] the test system is asthma patients. Description: Clinical Phase II study: lung function (spirometry, body plethysmography) after single inhaled doses. From the text:
(§1) Clinical Phase II study: A randomised double-blind, double-dummy, placebo and active comparator-controlled, cross-over trial assesses the activity, safety, tolerability and pharmacokinetics of single doses of 5-(2-{[6-(2,2-difluoro-2-phenylethoxy)hexyl]amino}-1-(R)-hydroxyethyl)-8-hydroxyquinolin-2(1H)-one heminapadisylate by inhalation in asthma patients.
(§2) Methods: Men with a diagnosis of mild to moderate persistent asthma, as defined by the 2006 GINA guideline, for at least 6 months prior to screening and with a FEV 1 61-85% of the predicted normal values (according to Quanjer et al. 1993) were randomised to treatment sequences comprising a single-dose administration of 5-(2-{[6-(2,2-difluoro-2-phenylethoxy)hexyl]amino}-1-(R)-hydroxyethyl)-8-hydroxyquinolin-2(1H)-one heminapadisylate (at metered nominal doses of 5, 10 and 25 micrograms in the Cyclohaler® device), two administrations (at time points 0 and 12 hours) of Salmeterol (at a metered nominal dose of 50 micrograms in the Cyclohaler® device) and placebo administered all of them by means of a dry powder inhaler. Lung function measurements included (by spirometry) FEV1, PEF, FVC, FEF25-75, and (by body plethysmography) sGaw and Raw.

The nature of series [2]: Clinical Phase II study: pharmacokinetics, plasma level after inhalation. To be noted: subjects receiving the dose of 5 micrograms by inhalation.
Text: as §1, §2

The subject of series [3] is asthma patients. Description: Clinical Phase II study: safety and tolerability, adrenergic adverse events.
Text: as §1, §2

Where [4] appears, read: single dose 5 micrograms, patients with asthma.

The record followed here is patent publication US20120040941A1, “5-(2--1-HYDROXYETHYL)-8-HYDROXYQUINOLIN-2(1H)-ONE AND ITS USE IN THE TREATMENT OF PULMONARY DISEASES” (priority 2009, published 2012).

`O=c1ccc2c([C@@H](O)CNCCCCCCOCC(F)(F)c3ccccc3)ccc(O)c2[nH]1` [5-(2-{[6-(2,2-difluoro-2-phenylethoxy)hexyl]amino}-1-(R)-hydroxyethyl)-8-hydroxyquinolin-2(1H)-one]: the “differences in dose effect between the different doses” value in the series on asthma patients [1] (5, 10 and 25 micrograms) is listed as “no evidence of differences in dose effect”. The “bronchodilatory action, time after dosing” value in the series with asthma patients [1] (all doses (5, 10 and 25 micrograms), single inhalation) was “up to 36 hours”. Moreover, the bronchodilation entry in the series on asthma patients [1] (setting [4]) is listed as “supramaximal long-lasting bronchodilation”. Besides, the “increase in average trough FEV1 compared to salmeterol” value with asthma patients [1] (single dose vs salmeterol 50 micrograms at 0 and 12 hours) is given as “statistically significant”. Besides, the “average peak and trough FEV1 compared with placebo and with salmeterol” value with asthma patients [1] (single inhaled doses 5, 10 and 25 micrograms (all doses tested), salmeterol 2 x 50 micrograms, mild to moderate persistent asthma) is given as “clearly increased”. The plasma level in series [2] is < 2.5 pg/mL. In the series with asthma patients [3] (doses 5, 10 and 25 micrograms, single inhalation), the “adverse events commonly seen after adrenergic stimulation (tremor, tachycardia, restlessness)” value is “occurred only with the two higher (10 and 25 micrograms) doses”. In addition, the systemic adrenergic effects entry with asthma patients [3] (setting [4]) is listed as “without producing systemic adrenergic effects”.
